# Where two headings read alike, the source gives them in different places.
# Key:
# Format in all cases: cell-based, human
# A549 cells [1] = experiment: Intracellular GSH levels by HPLC-EC in A549 cells; details: for activity at 25 µM: Homo sapiens; for effect on intracellular GSH (words): A549 cells
# Method: (§1) Cell lines and culture conditions. Human lung epithelial cancer (A549), human leukemia HL-60 and human prostate (PC-3) tumor cells were purchased from ATCC (Manassas, Va.). A549 and PC-3 cells were grown in Ham's F12 medium (F12) and Kaighn's modification of Ham's F12 medium (F12K) with 2 mM L-glutamine (ATCC), respectively, supplemented with 10% fetal bovine serum (FBS) and 5% pen/strep (10,000 unit, Cellgro). HL-60 cells were grown in Iscove's modified Dulbecco's medium with 4 mM L-glutamine (ATCC) supplemented with 20% FBS and 5% pen/strep. Cell were grown in T-75 flask at 37° C. and 5% CO2 air atmosphere and in 24-well plates for GSH levels and LDH release measurements.
# (§2) Intracellular levels of GSH. Intracellular GSH levels can be determined by HPLC-EC. Cultured cells from 24-well plates were washed once with 1 ml of PBS and then re-suspended in 0.5 ml of distilled water with 40 μM of digitonin (2 mM stock solution in DMSO) for 30 min at room temperature. Then, 50 μl of 10% meta-phosphoric acid were added (1% final concentration), the samples were sonicated for 2 min, centrifuged at 20,000 g for 10 min, and 0.2 ml of supernatant placed in vials for HPLC analysis. […] The flow rate was […]. The retention time for GSH in these conditions was 7.5 min. The HPLC instrument was from ESA, Inc. (Chelmsford, Mass.), equipped with an autosampler (model 540) and a Coul array detector (model 5600A). The potential applied was +0.75 V vs. H/Pd electrode, and the injection volume 5 μl.
# HL-60 cells [2] = experiment: Intracellular GSH levels by HPLC-EC in HL-60 cells; details: for Int. GSH % con.: HL-60, 25 μM
# Method: as §1, §2
# PC-3 cells [3] = experiment: Intracellular GSH levels by HPLC-EC in PC-3 cells
# Method: as §1, §2
# A549 cells [4] = experiment: Cytotoxicity as LDH release in A549 cells
# Method: as §1
# (§3) Assessment of cytotoxicity. In one exemplary method, membrane integrity of A549, HL-60 and PC-3 cells was used as an index of drug-induced cytotoxicity, and was assessed by monitoring the release of cytosolic lactate dehydrogenase (LDH). LDH activity was measured in the culture medium and cell lysates (50 mM HEPES, Triton X-100 0.5%, pH 7) using a plate reader format as previously described (41). Briefly, 5 μl of cell culture supernatant and lysates were incubated with 0.24 mM NADH in a Tris/NaCl pH 7.2 buffer in 96-well plates for 5 min at 25° C. The reaction was started by the addition of 9.8 mM pyruvate and the consumption of NADH followed at 340 nm for 5 min at 30° C. Percent LDH release was calculated by the following: (supernatant LDH/supernatant LDH+lysate LDH)×100.
# HL-60 cells [5] = experiment: Cytotoxicity as LDH release in HL-60 cells; details: 48 hours treatment
# Method: as §1, §3
# PC-3 cells [6] = experiment: Cytotoxicity as LDH release in PC-3 cells; details: PC-3, 50 μM, 48 hours treatment
# Method: as §1, §3
# [7] = A549, 25 μM, 2 h, read-out: Intracellular GSH levels, % compared to control
# [8] = A549, 25 μM, 4 h, read-out: Intracellular GSH levels, % compared to control
# [9] = A549, 25 μM, 24 hours treatment
# [10] = PC-3, 25 μM, 24 hours treatment
# [11] = A549, 75 μM, 48 hours treatment
smiles,measurement,setting,value
"O=C(/C=C/c1ccccc1O)c1ccccc1 [2-HC, 2-hydroxychalcone]",activity at 25 µM,A549 cells [1]; [7],< 5%
same,activity at 25 µM,A549 cells [1]; [8],< 5%
"C[C@]12CC[C@@H]3c4cc(O)c(O)cc4CC[C@H]3[C@@H]1CC[C@@H]2O [2-HE, 2-hydroxyestradiol, reference compound]","Intracellular GSH levels, % compared to control","A549 cells [1]; A549, 25 μM, 2 h",69.0 ± 0.5%
same,Int. GSH % con.,A549 cells [1]; [9],<5 % con.
same,Int. GSH % con.,HL-60 cells [2]; 24 hours treatment,120 % con.
same,Int. GSH % con.,PC-3 cells [3]; [10],228 % con.
same,LDH rel. % con.,A549 cells [4]; [11],150 % con.
same,LDH rel. % con.,"HL-60 cells [5]; HL-60, 25 μM",250 % con.
same,LDH rel. % con.,PC-3 cells [6],113 % con.
"COc1cc2c(cc1O)CC[C@@H]1[C@@H]2CC[C@]2(C)[C@@H](O)CC[C@@H]12 [2-ME, 2-methoxyestradiol, reference compound]",Int. GSH % con.,"A549 cells [1]; A549, 50 μM, 24 hours treatment",49 % con.
same,Int. GSH % con.,HL-60 cells [2]; 24 hours treatment,41 % con.
same,Int. GSH % con.,PC-3 cells [3]; [10],68 % con.
same,LDH rel. % con.,A549 cells [4]; [11],150 % con.
same,LDH rel. % con.,"HL-60 cells [5]; HL-60, 25 μM",265 % con.
same,LDH rel. % con.,PC-3 cells [6],128 % con.
"O=C(/C=C/c1ccccc1O)c1ccccc1O [2′,2-DHC, 2′ 2 dihydroxychalcone]","Intracellular GSH levels, % compared to control","A549 cells [1]; A549, 25 μM, 2 h",<5%
same,"Intracellular GSH levels, % compared to control","A549 cells [1]; A549, 25 μM, 4 h",<5%
"O=C(/C=C/c1ccc(O)cc1)c1ccc(O)cc1O [2′,4′,4-THC, 2′,4′,4 trihydroxychalcone]",activity at 25 µM,A549 cells [1]; [7],6.8 ± 0.2%
same,activity at 25 µM,A549 cells [1]; [8],< 5%
"O=C(/C=C/c1ccccc1)c1ccc(O)cc1O [2′,4′-DHC, 2′ 4′ dihydroxychalcone]","Intracellular GSH levels, % compared to control","A549 cells [1]; A549, 25 μM, 2 h",22.0 ± 1.8%
same,"Intracellular GSH levels, % compared to control","A549 cells [1]; A549, 25 μM, 4 h",<5%
"O=C(/C=C/c1ccccc1)c1cc(O)ccc1O [2′,5′-DHC, 2′ 5′ dihydroxychalcone]","Intracellular GSH levels, % compared to control","A549 cells [1]; A549, 25 μM, 2 h",<5%
same,"Intracellular GSH levels, % compared to control","A549 cells [1]; A549, 25 μM, 4 h",<5%
same,Int. GSH % con.,A549 cells [1]; [9],<5 % con.
same,Int. GSH % con.,HL-60 cells [2]; 24 hours treatment,<5 % con.
same,Int. GSH % con.,PC-3 cells [3]; [10],67 % con.
same,LDH rel. % con.,A549 cells [4]; [11],273 % con.
same,"effect on the toxicities of rotenone (50 μM), curcumin (50 μM) and 2-ME (50 μM)","A549 cells [4]; A549 cells, 48 hours, compound 10 μM (FIG. 20D)",potentiated
same,LDH rel. % con.,"HL-60 cells [5]; HL-60, 50 μM",310 % con.
same,LDH rel. % con.,PC-3 cells [6],246 % con.
"O=C(/C=C/c1ccc(O)cc1)c1ccccc1 [4-HC, 4-hydroxychalcone]",activity at 25 µM,A549 cells [1]; [7],5.5 ± 0.4%
same,activity at 25 µM,A549 cells [1]; [8],< 5%
"O=C(/C=C/c1ccccc1)c1ccc(O)cc1 [4′-HC, 4′-hydroxychalcone]",activity at 25 µM,A549 cells [1]; [7],35.6 ± 2.9%
same,activity at 25 µM,A549 cells [1]; [8],< 5%
same,intracellular GSH levels compared to control,"HL-60 cells [2]; HL-60 cells, 25 μM, 24 hours of treatment (FIG. 19B)",215%
same,intracellular GSH levels compared to control,"PC-3 cells [3]; PC-3 cells, 25 μM, 24 hours of treatment (FIG. 19B)",164%
"O=c1cc(-c2ccccc2)oc2cccc(O)c12 [5-HF, 5-hydroxyflavone]",effect on intracellular GSH (words),A549 cells [1],less effective
same,activity at 25 µM,A549 cells [1]; [8],44.7 ± 3.4%
"O=c1cc(-c2ccccc2)oc2cc(O)ccc12 [7-HF, 7-Hydroxyflavone]",effect on intracellular GSH (words),A549 cells [1],almost as effective as chrysin
same,activity at 25 µM,A549 cells [1]; [7],58.1 ± 1.4%
same,activity at 25 µM,"A549 cells [1]; A549, 25 μM, 24 hours treatment, read-out: Int. GSH % con.",< 5%
same,activity at 50 µM,"HL-60 cells [2]; Homo sapiens, HL-60, 50 μM, 24 hours treatment, read-out: Int. GSH % con.",56%
same,activity at 25 µM,"PC-3 cells [3]; Homo sapiens, PC-3, 25 μM, 24 hours treatment, read-out: Int. GSH % con.",63%
same,"LDH release, % of control at 75 µM","A549 cells [4]; Homo sapiens, A549, 75 μM, 48 hours treatment, read-out: LDH rel. % con.",113%
same,"LDH release, % of control at 50 µM","HL-60 cells [5]; Homo sapiens, HL-60, 50 μM, read-out: LDH rel. % con.",113%
same,"LDH release, % of control at 50 µM","PC-3 cells [6]; Homo sapiens, read-out: LDH rel. % con.",96%

# Reference: patent US7790762B2, “Compounds and methods for thiol-containing compound efflux and cancer treatment” (National Jewish Health, priority 2002, dated 2010)
